Tests used:
COS7 cells [1] = experiment: Incorporation of [1-14C]photo-Met and [3H]Phe into newly synthesized protein; assay type: cell-based, monkey
Description: Cells were washed 6 times with PBS and lysed in 0.5% Triton X-100, 0.2% sodium deoxycholate. Aggregated DNA was removed, protein was precipitated^43, the pellet was redissolved in 0.3 ml 0.5% SDS and subjected to a second round of precipitation. […] The dried pellet was redissolved and processed for scintillation counting (data of Table 1 and FIG. 4b) or processed as follows for amino acid analysis (FIG. 2b): the pellet was dissolved in 600 µl 50 mM NH4HCO3, 0.5% SDS, 3 mM CaCl2 containing 0.25 mg pronase (Roche) followed by incubation at 37° C. for 20 h. The sample was lyophilized, dissolved in 600 μl of 7 N HCl containing 4 mg of glutamic acid and 6 mg of photo-Met and heated to 70° C. for 24 h. A Dowex 50WX8 column (1.6×24 cm) was prepared^18 and equilibrated with 0.1 M sodium citrate pH 3.8. The sample was concentrated to 50 μl in a speed-vak, diluted to 1 ml with 0.1 M sodium citrate pH 3.8, and loaded onto the column. The column was eluted at 24° C. at a flow rate of 20 ml/h with 70 ml 0.1 M sodium citrate pH 3.8, 26 ml 0.1 M sodium citrate pH 4.3 and 100 ml of 0.1 M sodium citrate pH 4.5. Fractions of 3 ml were collected and assayed for absorbance at 350 nm, radioactivity by scintillation counting, and amino groups by the fluorescamine method^44.
To decrease competition for activation by tRNA synthetases, media devoid of the structurally related amino acids Leu and Met (LM-2) or, for some experiments, devoid of Leu, Met, Ile and Val (LM-4) were used. Proteins incorporated radioactivity as shown by autoradiography after separation by SDS-PAGE (FIG. 2a, lane 3). […] 88% of the radioactivity in the labeled proteins was intact [1-^14C]photo-Met (FIG. 2b, photo-Met). A small peak eluting slightly earlier than glutamic acid (FIG. 2 B, Glu) contained 7% of the radioactivity. This peak was also observed if free [1-^14C]photo-Met was heated with HCl under the conditions of the hydrolysis (data not shown) and therefore represents a product of thermal decomposition of the amino acid. Under the conditions employed, radioactivity originating from degradation/re-integration would be expected to appear as aspartate and glutamate (oxidative release of [^14C]CO2, metabolism via pyruvate carboxylase, citric acid cycle and transamination to Gln and Asn that will be hydrolyzed to Glu and Asp by hot HCl). However, no radioactivity was incorporated via this pathway. We conclude that at least 95% of incorporated radioactivity represents intact [1-^14C]photo-Met. To obtain quantitative data on the frequency of incorporation of photo-Met into newly synthesized protein, we performed co-labeling with [1-^14C]photo-Met and [^3H]Phe. […] Two in three hundred amino acids in newly synthesized protein will be photo-Met.

COS7 cells [2] = experiment: Competition of [1-14C]photo-Met incorporation by natural amino acids; assay type: cell-based, monkey; conditions: 1.7 mM [1-14C]photo-Met, 3 mM competing amino acid
Description: FIG. 4: Specificity of incorporation and cross-linking by photo-Met and photo-Leu. COS7 cells were transfected with HA-tagged human PGRMC1 and were grown in LM-4 in the absence or presence of photo-Leu (A) or photo-Met (B) with addition of 3 mM of the indicated competing amino acid. cross-linked products formed after UV-irradiation were detected by SDS-PAGE followed by western blotting against the HA-epitope. (C) COS7 cells were grown in the presence of 1.7 mM [1-^14C]photo-Met, a constant trace amount of [^3H]Phe and 3 mM of competing unlabeled amino acids as indicated in the legend. Protein was precipitated and protein-bound radioactivity was determined by scintillation counting. […] The control value obtained in the absence of competing amino acid (con) is set to 100. Data are average±SD of triplicate determinations.
COS7 cells were grown for 20 h in LM-2 containing radiolabeled amino acids ([1-^14C]photo-Met and [^3H]Phe). Cells were washed 6 times with PBS and lysed in 0.5% Triton X-100, 0.2% sodium deoxycholate. Aggregated DNA was removed, protein was precipitated^43, the pellet was redissolved in 0.3 ml 0.5% SDS and subjected to a second round of precipitation. […] Fractions of 3 ml were collected and assayed for absorbance at 350 nm, radioactivity by scintillation counting, and amino groups by the fluorescamine method^44. […]

Compound: CC1(CCC(N)[14C](=O)O)N=N1 (racemic) [[1-^14C]photo-Met, DL-[1-^14C]-2-amino-5,5′-azi-hexanoic acid]
- Relative frequency (of total amino acids in newly synthesized protein) (COS7 cells [1]; COS7 cells grown 22 h in LM-2): 0.7%
- Incorporated amino acid (COS7 cells [1]; COS7 cells grown 22 h in LM-2, average ± SD of triplicate): 0.50 ± 0.05 nmol/dish
- Protein-bound activity (COS7 cells [1]; COS7 cells grown 22 h in LM-2 with [3H]Phe and [1-14C]photo-Met, average ± SD of triplicate): 2.34 ± 0.23 nCi/dish
- frequency of incorporation relative to that of phenylalanine (COS7 cells [1]; co-labeling with [1-14C]photo-Met and [3H]Phe): 14%
- competition of incorporation by Met and Leu (COS7 cells [2]): strongly competed
- effect of Val and Ile on incorporation (COS7 cells [2]): slightly stimulated incorporation

— patent US20090211893A1, “Photo-Activatable Amino Acids” (priority 2005, published 2009)
